Format in all cases: cell-based, human
Data set [1] deals with IRF-Lucia luciferase reporter (ISRE) in THP1-Dual cells. Briefly: THP1-Dual IRF-Lucia luciferase reporter assay (ISRE activation). As to conditions: Homo sapiens, THP1-Dual, Human Reporter Cell Line THP1; read-out: THP1 IRF EC50. The method in brief: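 THP1-Dual cells were differentiated with 5 ng/mL PMA for 48 h at 37° C, washed, then treated with compounds at 10 μM final for 24 h; LPS at 313 ng/mL served as control. ISRE-driven Lucia luciferase in supernatant was read by luminescence.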

The nature of data set [2]: THP1-Dual cytotoxicity (Cell Titer Glo, ATP). As to conditions: human, THP1-Dual cells, Human Reporter Cell Line THP1; read-out: Thp1 cytotox CC50. The procedure, abridged: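 Human THP1-Dual cells were treated across an 8-point dose-response range. Cytotoxicity was measured in-plate by CellTiter-Glo luminescence, which quantifies ATP as a marker of metabolically active cells, and CC50 was taken as the 50% cytotoxic concentration.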

Data set [3] has as its system NF-κB-SEAP reporter in THP1-Dual cells. The data set can be described thus: THP1-Dual NF-κB-SEAP reporter counterscreen. The note with it: Homo sapiens, THP1-Dual, Human Reporter Cell Line THP1; read-out: THP1 NFkB EC50. The procedure, abridged:
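THP1-Dual cells differentiated 48 h with 5 ng/mL PMA, washed, then treated 24 h with compounds at 10 μM final; LPS 313 ng/mL as control. Supernatant read for Lucia luciferase (ISRE) by QUANTI-Luc luminescence and for NF-κB-SEAP by QUANTI-Blue absorbance at 630 nm after 1 h at 37° C.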

Each structure is given as a SMILES string.

On to `COCOc1ccc2oc(-c3ccc(C)c(NC(=O)c4ccc(OC)c([N+](=O)[O-])c4)c3)nc2c1` [ND-95, 4-methoxy-N-(5-(5-(methoxymethoxy)benzo[d]oxazol-2-yl)-2-methylphenyl)-3-nitrobenzamide], for which the figures for the EC50 in data set [1] and in data set [3] were 0.59 µM and 1.27 µM, respectively. Moreover, the CC50 in data set [2] amounted to 26.7 µM.

`COCOc1ccc2oc(-c3ccc(C)c([N+](=O)[O-])c3)nc2c1` [ND-96]: the 50% effective concentration (EC50) in data set [1] is roughly 4.1 µM; in data set [3], roughly 4.09 µM. In addition, the CC50 in data set [2] was determined as 30.1 µM.

(Values after patent US20220395500A1, “SMALL MOLECULE ACTIVATORS OF INTERFERON REGULATORY FACTOR 3 AND METHODS OF USE THEREOF” (Neuralexo, Inc., priority 2020, published 2022).)
